Experimental data reported in ChEMBL document CHEMBL4304761, “Alkylsulfonamide-containing quinazoline derivatives as potent and orally bioavailable PI3Ks inhibitors” (Bioorg Med Chem, 2019).
Activity calls are given as the source filed them. The calls are words filed in the database; no cut-off is given here.

Experiments:
HCT-116 [1] = test: Antiproliferative activity against human HCT116 cells harboring PIK3CA mutant H1047R measured after 72 hrs by MTT assay; assay type: functional, cell-based; conditions: HCT-116, 72 h
MCF7 = test: Antiproliferative activity against human MCF7 cells harboring PIK3CA mutant E545K measured after 72 hrs by MTT assay; assay type: functional, cell-based; conditions: MCF7, 72 h
SU-DHL-6 = test: Antiproliferative activity against human SUDHL6 cells measured after 72 hrs by CCK-8 assay; assay type: functional, cell-based; conditions: SU-DHL-6, 72 h
[2] = Inhibition of PI3K/AKT/mTOR signaling in human HCT116 cells assessed as decrease in AKT phosphorylation at S473 at 1 uM measured after 5 hrs by Western blot analysis; assay type: cell-based
[3] = molecular target: T1, Phosphatidylinositol 4,5-bisphosphate 3-kinase catalytic subunit alpha isoform (Homo sapiens, UniProt P42336); test: Inhibition of PI3K alpha (unknown origin) using lipid substrate measured after 40 mins in presence of ATP by Kinase-Glo plus reagent based luminescence assay
T1 sequence (P42336 whole entry, canonical isoform): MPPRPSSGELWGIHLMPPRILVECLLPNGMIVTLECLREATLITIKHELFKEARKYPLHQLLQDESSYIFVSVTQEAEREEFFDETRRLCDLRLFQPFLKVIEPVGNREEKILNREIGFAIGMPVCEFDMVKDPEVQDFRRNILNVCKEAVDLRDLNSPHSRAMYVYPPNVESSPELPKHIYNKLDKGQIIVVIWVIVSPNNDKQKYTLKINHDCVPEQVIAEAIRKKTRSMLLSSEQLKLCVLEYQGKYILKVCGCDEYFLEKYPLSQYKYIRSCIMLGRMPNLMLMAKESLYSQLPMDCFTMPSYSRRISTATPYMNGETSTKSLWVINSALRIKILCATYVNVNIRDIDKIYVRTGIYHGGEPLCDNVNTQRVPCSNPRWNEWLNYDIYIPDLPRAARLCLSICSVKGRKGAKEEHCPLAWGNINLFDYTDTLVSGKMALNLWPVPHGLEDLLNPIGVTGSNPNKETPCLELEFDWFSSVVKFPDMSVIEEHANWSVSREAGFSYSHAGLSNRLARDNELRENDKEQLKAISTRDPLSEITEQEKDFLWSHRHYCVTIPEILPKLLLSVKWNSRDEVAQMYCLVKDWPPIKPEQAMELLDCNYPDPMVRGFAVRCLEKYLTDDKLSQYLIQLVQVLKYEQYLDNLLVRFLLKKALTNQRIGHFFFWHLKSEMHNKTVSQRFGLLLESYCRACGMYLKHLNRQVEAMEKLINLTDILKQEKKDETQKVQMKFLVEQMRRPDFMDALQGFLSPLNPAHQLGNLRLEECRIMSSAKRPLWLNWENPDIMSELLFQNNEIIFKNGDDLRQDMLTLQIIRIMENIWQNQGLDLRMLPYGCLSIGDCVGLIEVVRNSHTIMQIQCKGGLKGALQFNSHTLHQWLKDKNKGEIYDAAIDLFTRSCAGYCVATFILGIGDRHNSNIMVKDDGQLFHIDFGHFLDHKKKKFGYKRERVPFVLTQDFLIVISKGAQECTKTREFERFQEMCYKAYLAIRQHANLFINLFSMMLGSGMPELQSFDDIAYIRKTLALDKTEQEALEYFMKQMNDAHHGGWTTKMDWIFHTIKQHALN

[4] = molecular target: Phosphatidylinositol 4,5-bisphosphate 3-kinase catalytic subunit beta isoform (Homo sapiens, UniProt P42338); test: Inhibition of PI3K beta (unknown origin) using lipid substrate measured after 40 mins in presence of ATP by Kinase-Glo plus reagent based luminescence assay
Phosphatidylinositol 4,5-bisphosphate 3-kinase catalytic subunit beta isoform, sequence (P42338 whole entry, canonical isoform): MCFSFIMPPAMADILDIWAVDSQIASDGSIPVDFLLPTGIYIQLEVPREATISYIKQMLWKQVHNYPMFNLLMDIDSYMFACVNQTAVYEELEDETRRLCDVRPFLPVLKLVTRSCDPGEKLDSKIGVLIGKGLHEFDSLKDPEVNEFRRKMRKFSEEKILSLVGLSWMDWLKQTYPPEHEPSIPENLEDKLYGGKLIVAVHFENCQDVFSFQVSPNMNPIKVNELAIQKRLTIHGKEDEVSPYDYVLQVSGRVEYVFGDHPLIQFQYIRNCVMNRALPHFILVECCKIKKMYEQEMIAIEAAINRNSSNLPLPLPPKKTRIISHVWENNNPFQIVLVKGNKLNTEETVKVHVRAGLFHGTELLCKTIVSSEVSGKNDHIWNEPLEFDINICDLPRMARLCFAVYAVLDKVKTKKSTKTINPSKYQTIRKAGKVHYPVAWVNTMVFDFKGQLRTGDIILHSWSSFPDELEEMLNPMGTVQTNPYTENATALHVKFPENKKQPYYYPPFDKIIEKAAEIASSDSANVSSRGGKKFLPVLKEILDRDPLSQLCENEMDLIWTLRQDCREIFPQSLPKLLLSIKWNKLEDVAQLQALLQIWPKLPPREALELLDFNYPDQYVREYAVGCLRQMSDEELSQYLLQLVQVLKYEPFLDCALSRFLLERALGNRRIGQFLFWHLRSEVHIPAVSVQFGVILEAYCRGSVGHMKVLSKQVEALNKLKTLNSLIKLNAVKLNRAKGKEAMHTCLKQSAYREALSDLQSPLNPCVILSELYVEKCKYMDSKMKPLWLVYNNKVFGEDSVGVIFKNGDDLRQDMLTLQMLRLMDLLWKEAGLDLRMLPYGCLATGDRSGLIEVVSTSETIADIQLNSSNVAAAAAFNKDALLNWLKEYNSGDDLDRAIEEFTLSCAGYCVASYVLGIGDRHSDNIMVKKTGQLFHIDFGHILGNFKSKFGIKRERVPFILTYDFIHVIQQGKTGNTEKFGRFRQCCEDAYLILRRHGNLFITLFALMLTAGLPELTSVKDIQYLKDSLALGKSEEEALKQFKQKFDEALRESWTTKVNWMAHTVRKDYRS

[5] = molecular target: Phosphatidylinositol 4,5-bisphosphate 3-kinase catalytic subunit gamma isoform (Homo sapiens, UniProt P48736); test: Inhibition of PI3K gamma (unknown origin) using lipid substrate measured after 40 mins in presence of ATP by Kinase-Glo plus reagent based luminescence assay
Phosphatidylinositol 4,5-bisphosphate 3-kinase catalytic subunit gamma isoform, sequence (P48736 whole entry, canonical isoform): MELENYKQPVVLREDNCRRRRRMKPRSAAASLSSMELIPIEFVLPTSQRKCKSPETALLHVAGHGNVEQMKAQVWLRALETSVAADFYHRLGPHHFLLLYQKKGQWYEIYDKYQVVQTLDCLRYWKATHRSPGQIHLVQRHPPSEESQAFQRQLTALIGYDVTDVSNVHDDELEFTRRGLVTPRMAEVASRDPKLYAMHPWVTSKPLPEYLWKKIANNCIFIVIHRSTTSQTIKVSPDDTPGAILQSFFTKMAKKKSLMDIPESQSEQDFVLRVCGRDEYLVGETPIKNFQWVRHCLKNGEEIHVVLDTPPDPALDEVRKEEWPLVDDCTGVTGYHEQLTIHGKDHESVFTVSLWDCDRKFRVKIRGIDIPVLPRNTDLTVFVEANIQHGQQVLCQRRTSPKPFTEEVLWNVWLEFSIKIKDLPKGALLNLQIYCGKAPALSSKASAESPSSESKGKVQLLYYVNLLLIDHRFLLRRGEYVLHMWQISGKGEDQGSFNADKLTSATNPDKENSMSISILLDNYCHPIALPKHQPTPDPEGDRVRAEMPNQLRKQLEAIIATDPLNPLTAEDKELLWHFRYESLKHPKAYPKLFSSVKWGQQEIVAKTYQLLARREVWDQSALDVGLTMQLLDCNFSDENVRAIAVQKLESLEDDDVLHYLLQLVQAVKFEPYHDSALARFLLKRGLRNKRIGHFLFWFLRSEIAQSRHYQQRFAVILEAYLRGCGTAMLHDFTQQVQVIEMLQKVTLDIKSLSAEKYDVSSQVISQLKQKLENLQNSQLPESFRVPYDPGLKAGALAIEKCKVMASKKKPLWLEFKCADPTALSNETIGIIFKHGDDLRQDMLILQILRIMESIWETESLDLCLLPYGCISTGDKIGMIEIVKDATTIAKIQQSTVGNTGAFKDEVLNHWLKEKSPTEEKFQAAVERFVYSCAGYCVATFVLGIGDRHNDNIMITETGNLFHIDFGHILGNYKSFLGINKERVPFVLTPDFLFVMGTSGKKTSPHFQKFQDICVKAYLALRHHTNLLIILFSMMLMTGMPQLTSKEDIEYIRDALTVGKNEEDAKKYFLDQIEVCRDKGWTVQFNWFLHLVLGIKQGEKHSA

[6] = molecular target: T2, Phosphatidylinositol 4,5-bisphosphate 3-kinase catalytic subunit delta isoform (Homo sapiens, UniProt O00329); test: Inhibition of PI3K delta (unknown origin) using lipid substrate measured after 40 mins in presence of ATP by Kinase-Glo plus reagent based luminescence assay
T2 sequence (O00329 whole entry): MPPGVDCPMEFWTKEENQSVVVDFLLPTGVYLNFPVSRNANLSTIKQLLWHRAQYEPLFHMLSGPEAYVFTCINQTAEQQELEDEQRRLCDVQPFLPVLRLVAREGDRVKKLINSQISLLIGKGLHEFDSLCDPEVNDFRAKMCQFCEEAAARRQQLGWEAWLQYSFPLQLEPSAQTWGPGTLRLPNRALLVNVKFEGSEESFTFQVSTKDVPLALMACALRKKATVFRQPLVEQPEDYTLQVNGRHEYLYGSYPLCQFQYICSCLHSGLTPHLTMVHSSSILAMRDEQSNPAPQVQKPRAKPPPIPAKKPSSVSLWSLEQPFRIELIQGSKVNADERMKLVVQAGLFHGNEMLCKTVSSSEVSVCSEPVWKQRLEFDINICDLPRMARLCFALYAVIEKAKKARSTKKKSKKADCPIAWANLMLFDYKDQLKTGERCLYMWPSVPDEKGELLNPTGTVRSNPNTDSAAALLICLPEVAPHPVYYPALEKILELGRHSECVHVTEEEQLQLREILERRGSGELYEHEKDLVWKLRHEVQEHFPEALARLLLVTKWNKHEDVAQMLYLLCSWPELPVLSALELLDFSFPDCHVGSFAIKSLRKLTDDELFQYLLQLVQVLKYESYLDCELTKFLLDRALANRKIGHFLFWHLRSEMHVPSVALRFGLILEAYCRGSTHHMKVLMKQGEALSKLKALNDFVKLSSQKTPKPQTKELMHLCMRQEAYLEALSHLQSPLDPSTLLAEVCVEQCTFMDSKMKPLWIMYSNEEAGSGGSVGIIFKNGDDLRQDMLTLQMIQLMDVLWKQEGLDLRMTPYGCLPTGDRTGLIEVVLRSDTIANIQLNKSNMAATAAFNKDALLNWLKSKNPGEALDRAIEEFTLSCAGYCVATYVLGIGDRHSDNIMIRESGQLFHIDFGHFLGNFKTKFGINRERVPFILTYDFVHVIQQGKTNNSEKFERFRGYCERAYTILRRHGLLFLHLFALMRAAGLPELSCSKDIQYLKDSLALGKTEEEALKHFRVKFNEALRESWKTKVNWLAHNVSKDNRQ

[7] = Inhibition of PI3K/AKT/mTOR signaling in human HCT116 cells assessed as decrease in AKT phosphorylation at S473 measured after 5 hrs by Western blot analysis; assay type: cell-based
HCT-116 [8] = test: Antitumour activity against human HCT116 cells xenografted in BALB/c nude mouse assessed as tumour volume at 5 mg/kg, po via gavage administered once daily for 15 days and measure every three days by caliper method (reference value: 2769 +/- 536 mm3); assay type: functional
HCT-116 [9] = test: Antitumour activity against human HCT116 cells xenografted in BALB/c nude mouse assessed as tumour volume at 25 mg/kg, po via gavage administered once daily for 15 days and measure every three days by caliper method (reference value: 2769 +/- 536 mm3); assay type: functional
HCT-116 [10] = test: Antitumour activity against human HCT116 cells xenografted in BALB/c nude mouse assessed as tumour growth inhibition at 5 mg/kg, po via gavage administered once daily for 15 days and measure every three days by caliper method relative to control; assay type: functional; conditions: HCT-116, po, read-out: TGI
HCT-116 [11] = test: Antitumour activity against human HCT116 cells xenografted in BALB/c nude mouse assessed as tumour growth inhibition at 25 mg/kg, po via gavage administered once daily for 15 days and measure every three days by caliper method relative to control; assay type: functional; conditions: HCT-116, po, read-out: TGI
HCT-116 [12] = test: Antitumour activity against human HCT116 cells xenografted in BALB/c nude mouse assessed as tumour weight at 5 mg/kg, po via gavage administered once daily for 15 days and measure every three days by caliper method (reference value: 3.2 +/- 0.32 g); assay type: functional
HCT-116 [13] = test: Antitumour activity against human HCT116 cells xenografted in BALB/c nude mouse assessed as tumour weight at 25 mg/kg, po via gavage administered once daily for 15 days and measure every three days by caliper method (reference value: 3.2 +/- 0.32 g); assay type: functional
[14] = Toxicity in BALB/c nude mouse xenografted with human HCT116 cells assessed as effect on body weight at 5 to 25 mg/kg, po via gavage administered once daily for 15 days; assay type: organism-based; conditions: in vivo, 360 h
[15] = molecular target: T1, Phosphatidylinositol 4,5-bisphosphate 3-kinase catalytic subunit alpha isoform; test: Potency index, ratio of 2-methoxy-5-(4-(2-morpholinoethylamino)quinazolin-6-yl)nicotinonitrile IC50 to test compound IC50 for inhibition of PI3K alpha (unknown origin)
Homo sapiens [16] = species on record: Homo sapiens; test: Selectivity ratio of IC50 for inhibition of PI3K beta (unknown origin) to IC50 for inhibition of PI3K alpha (unknown origin)
Homo sapiens [17] = species on record: Homo sapiens; test: Selectivity ratio of IC50 for inhibition of PI3K delta (unknown origin) to IC50 for inhibition of PI3K alpha (unknown origin)
Homo sapiens [18] = species on record: Homo sapiens; test: Selectivity ratio of IC50 for inhibition of PI3K gamma (unknown origin) to IC50 for inhibition of PI3K alpha (unknown origin)

Structure (SMILES)	IC50 (HCT-116 [1])	IC50 (MCF7)	IC50 (SU-DHL-6)	IC50 [3]	further results
Cn1c(=O)n(-c2ccc(C(C)(C)C#N)cc2)c2c3cc(-c4cnc5ccccc5c4)ccc3ncc21 [DACTOLISIB]	0.37 µM	0.35 µM	0.07 µM		inhibition [2]: Active
COc1ncc(-c2ccc3ncnc(NC4CCN(C(=O)C5CCCC5)CC4)c3c2)cc1NS(C)(=O)=O	2.8 µM	7.9 µM	3.3 µM	0.0028 µM	
COc1ncc(-c2ccc3ncnc(NCCN4CCCCC4)c3c2)cc1NS(=O)(=O)C1CC1	5.8 µM	3.2 µM	0.41 µM	0.034 µM	
COc1ncc(-c2ccc3ncnc(NCCN4CCOCC4)c3c2)cc1NS(C)(=O)=O	0.82 µM	0.99 µM	0.19 µM	0.0045 µM	IC50 [4]: 0.016 µM; IC50 [5]: 0.006 µM; IC50 [6]: 0.0022 µM; inhibition [7]: Dose-dependent effect; Activity (HCT-116 [8]): 1299 mm3; Activity (HCT-116 [9]): 992 mm3; inhibition in vivo at 5 mg/kg (HCT-116 [10]): 53%; inhibition in vivo at 25 mg/kg (HCT-116 [11]): 62%; Activity (HCT-116 [12]): 2 g; Activity (HCT-116 [13]): 1.6 g; Activity [14]: Non-Toxic; Ratio IC50 [15]: 100
COc1ncc(-c2ccc3ncnc(N(C)CCN(C)C)c3c2)cc1NS(C)(=O)=O	5.1 µM	4.7 µM	1.7 µM	0.0077 µM	
COc1ncc(-c2ccc3ncnc(NCCN4CCOCC4)c3c2)cc1NS(=O)(=O)C1CC1	1.9 µM	1.5 µM	0.33 µM	0.0071 µM	
COc1ncc(-c2ccc3ncnc(N[C@H]4CCN(C(=O)C(C)(C)C)C4)c3c2)cc1NS(C)(=O)=O	2 µM	0.59 µM	7.6 µM	0.0026 µM	
COc1ncc(-c2ccc3ncnc(NC4CCNCC4)c3c2)cc1NS(C)(=O)=O	1.3 µM	11 µM	≥ 100 µM	0.0009 µM	
COc1ncc(-c2ccc3ncnc(NCCN4CCCCC4)c3c2)cc1NS(C)(=O)=O	1.6 µM	3.7 µM	0.32 µM	0.012 µM	
COc1ncc(-c2ccc3ncnc(NC4CCN(C(C)=O)CC4)c3c2)cc1NS(C)(=O)=O	0.72 µM	16 µM	4.3 µM	0.0004 µM	
COc1ncc(-c2ccc3ncnc(N[C@H]4CCN(C(C)=O)C4)c3c2)cc1NS(C)(=O)=O	0.29 µM	14 µM	≥ 100 µM	0.0005 µM	IC50 [4]: 0.005 µM; IC50 [5]: 0.0043 µM; IC50 [6]: 0.0068 µM; Ratio IC50 (Homo sapiens [16]): 10; Ratio IC50 (Homo sapiens [17]): 10; Ratio IC50 (Homo sapiens [18]): 10
COc1ncc(-c2ccc3ncnc(NC4CCN(C(=O)OC(C)(C)C)CC4)c3c2)cc1NS(C)(=O)=O	1.8 µM	15 µM	9.7 µM	0.007 µM	
COc1ncc(-c2ccc3ncnc(N[C@H]4CCN(C(=O)C5CCCC5)C4)c3c2)cc1NS(C)(=O)=O	2.1 µM	2.5 µM	0.77 µM	0.0023 µM	
COc1ncc(-c2ccc3ncnc(N[C@H]4CCN(C(=O)OC(C)(C)C)C4)c3c2)cc1NS(C)(=O)=O	0.25 µM	0.87 µM	0.17 µM	0.0053 µM	
COc1ncc(-c2ccc3nccc(NCCN4CCOCC4)c3c2)cc1NS(C)(=O)=O	29 µM	88 µM	≥ 100 µM	0.106 µM	
COc1ncc(-c2ccc3ncnc(N[C@H]4CCN(C(=O)C5CC5)C4)c3c2)cc1NS(C)(=O)=O	1 µM	3.7 µM	3 µM	0.001 µM	
COc1ncc(-c2ccc3ncnc(NCCN(C)C)c3c2)cc1NS(C)(=O)=O	8.7 µM	10 µM	1.7 µM	0.007 µM	
COc1ncc(-c2ccc3ncnc(N[C@H]4CCN(C(=O)C5CCOCC5)C4)c3c2)cc1NS(C)(=O)=O	1.7 µM	4.8 µM	1.5 µM	0.0007 µM	IC50 [4]: 0.0056 µM; IC50 [5]: 0.0065 µM; IC50 [6]: 0.0074 µM; Ratio IC50 (Homo sapiens [16]): 10; Ratio IC50 (Homo sapiens [17]): 10; Ratio IC50 (Homo sapiens [18]): 10
COc1ncc(-c2ccc3ncnc(NC4CCN(C(=O)C5CCOCC5)CC4)c3c2)cc1NS(C)(=O)=O	2.9 µM	6 µM	≥ 100 µM	0.0021 µM	
